Blank lines part the entries; values can stand above or below the compound they belong to.
Tests used:
[1] = molecular target: T1, GST-Nrb331-453 and [35S]-labeled A1R202-326 (A1R-neurabin interaction) (Homo sapiens, UniProt Q9ULJ8); test: In vitro GST competition pull-down; assay type: binding; settings: peptide 0.1 μg/μl
T1 construct: made in house
T1 sequence (Q9ULJ8 331-453): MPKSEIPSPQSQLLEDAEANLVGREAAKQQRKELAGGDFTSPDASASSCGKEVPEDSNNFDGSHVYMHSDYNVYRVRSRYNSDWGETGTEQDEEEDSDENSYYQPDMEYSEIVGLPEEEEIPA
Text: FIG. 5A is a competition pull-down assay testing the abilities of A1R 3i loop (3iL) and C-tail (CT) peptides in blocking the interaction between GST-Nrb331-453 and [^35S]-labeled A1R202-326. […] A1R202-326 pulled down by GST-Nrb331-453. Free probe represents 1/10 of the input in each reaction.
FIG. 5B is a competition pull-down assay testing the abilities of A1R 3i loop (3iL) and C-tail (CT) peptides in blocking the interaction between GST-Nrb331-453 and [^35S]-labeled A1R202-326. In the graphical representation, quantitation of the amount of [^35S] A1R202-326 pulled down by GST-Nrb331-453 is shown. Free probe represents 1/10 of the input in each reaction. * represents p<0.05 vs. BSA control by one-way ANOVA Dunnett's multiple comparisons test. N=3/group.
Preparation of GST fusion proteins, synthesis of [^35S]-labeled in vitro translated probes, and pull-down assays were performed as described previously (See, for example, Chen Y, Booth C, Wang H, Wang R X, Terzi D, Zachariou V, et al. Effective Attenuation of Adenosine A1R Signaling by Neurabin Requires Oligomerization of Neurabin. Mol Pharmacol. 2017; 92 (6): 630-9; and Chen Y, Liu Y, Cottingham C, McMahon L, Jiao K, Greengard P, et al. Neurabin scaffolding of adenosine receptor and RGS4 regulates anti-seizure effect of endogenous adenosine. J Neurosci. 2012, 32 (8): 2683-95). […]

[2] = test system: hippocampal CA3-CA1 synapses; test: fEPSP recording in acute hippocampal slices; assay type: cell-based, mice
[3] = test system: Akt phosphorylation at Thr 308; test: A1R-mediated Akt activation in primary hippocampal neurons (Western blot); assay type: cell-based, mice
Protocol: Primary hippocampal neurons derived from WT or neurabin deficiency (Ppp1r9a^−/−) mice were treated with R-PIA at the indicated concentrations. Representative blots of phospho-Akt (pAkt, Thr308) are shown.
Primary hippocampal neurons derived from WT or neurabin deficiency (Ppp1r9a^−/−) mice were treated with R-PIA at the indicated concentrations. Quantitation of phospho-Akt (pAkt, Thr308) is shown. *** represents p<0.001 by two-way ANOVA. N=4/group.
WT and Ppp1r9a^−/− neurons were stimulated with 1 μM R-PIA for the indicated time durations. Representative blots of pAkt are shown.
WT and Ppp1r9a^−/− neurons were stimulated with 1 μM R-PIA for the indicated time durations. Quantitation of pAkt is shown. * represents p<0.05; ** represents p<0.01; **** represents p<0.0001 by two-way ANOVA for multiple comparisons. N=4/group. Data are shown as mean±SEM.

[4] = test system: primary hippocampal neurons; test: Glutamate-induced cell death in primary hippocampal neurons; assay type: cell-based, mice; settings: 100 μM glutamate plus 10 μM R-PIA
Protocol: Primary hippocampal culture was performed as described previously (Chen Y, Liu Y, Cottingham C, McMahon L, Jiao K, Greengard P, et al. Neurabin scaffolding of adenosine receptor and RGS4 regulates anti-seizure effect of endogenous adenosine. J Neurosci. 2012, 32 (8): 2683-95). […] In brief, hippocampal neurons were cultured in 24-well plates for 13-14 days in vitro and treated with (1) vehicle, (2) 100 μM glutamate alone, (3) 100 μM glutamate plus 10 μM R-PIA, (4) 100 μM glutamate, 10 μM R-PIA, plus 30 μM LY294002, for 30 min at 37° C. Neurons were then washed twice, and incubated with regular growth medium at 37° C. for an additional 24 hrs. Neurons were stained with 4 μM calcein-AM and 4 μM EthD-1 in DPBS and mounted for imaging under a fluorescence microscope.

[5] = test system: PTZ-induced seizures; test: PTZ-induced seizure in WT and neurabin null mice; assay type: in vivo
Protocol: (§1) Induction and evaluation of seizure were performed as described previously (See, for example, Chen Y, Liu Y, Cottingham C, McMahon L, Jiao K, Greengard P, et al. Neurabin scaffolding of adenosine receptor and RGS4 regulates anti-seizure effect of endogenous adenosine. J Neurosci. 2012, 32 (8): 2683-95). Ten to twelve week-old male mice were injected (i.p.) with kainate (Sigma) at 20 or 25 mg/kg (dissolved in saline), together with or without DPCPX (Sigma, 0.5 mg/kg in saline) or yohimbine (Sigma, 0.5 mg/kg in saline). Seizure severity was scored by trained observers blind to genotype and/or treatment. The severity of seizure behaviors was scored on a scale of 0 to 7, with 0 representing normal behavior and 7 representing death (see, for example, Yang D D, Kuan C Y, Whitmarsh A J, Rincon M, Zheng T S, Davis R J, et al. Absence of excitotoxicity-induced apoptosis in the hippocampus of mice lacking the Jnk3 gene. Nature. 1997, 389 (6653): 865-70; and Cottingham C, Chen Y, Jiao K, and Wang Q. The antidepressant desipramine is an arrestin-biased ligand at the alpha (2A)-adrenergic receptor driving receptor down-regulation in vitro and in vivo. J Biol Chem. 2011, 286 (41): 36063-75). To induce seizures with pentylenetetrazole (PTZ), mice were injected (i.p.) with PTZ at 40 mg/kg (dissolved in saline), with or without 8-Cyclopentyl-1,3-dipropylxanthine (DPCPX). Seizure severity was scored every 4 min for 30 min.

[6] = test system: spontaneous epileptic spikes in APP/PS1 mice; test: EEG recording of spontaneous epileptic activity in APP/PS1 mice; assay type: in vivo; settings: intranasal peptide plus i.p. DPCPX
Protocol: Implantation of electrodes for EEG recordings was performed under isoflurane anesthesia (4.5% for induction, approximately 2% for maintenance). In brief, 1 mm stainless steel electrodes (P1 Technologies, Roanoke, VA) were implanted into the primary somatosensory cortex at 1.8, 0.02, 1 (AP, ML, DV), and reference electrodes anterior to the bregma were implanted subdurally through small holes drilled in the skull. These electrodes were held in place with Dental cement kit (Stoelting), C&B Metabond Quick Adhesive Cement System (Parkell). The ground electrode was sutured in the cervical paraspinous area. […] EEG activity was recorded for 20 hrs using Biopac Systems amplifiers (Biopac Systems EEG100C) and AcqKnowledge 4.2 EEG Acquisition and analyzed with the Reader Software (Biopac Systems).
A total of 150 hrs of data was analyzed, 54 hrs for nTg mice and 96 hrs for APP/PS1 transgenic mice. Six hrs of recording were analyzed for each animal. […] When p-operator algorithm detected a spike, all signals were visually inspected to include in the analysis only those that were true positives in order to avoid non-epileptic artifacts caused by electrical noise (e.g., grooming) during spike selection. Spectral content of EEG signals were calculated using short-time Fourier transform (FFT).

[7] = test system: kainate-induced seizures; test: Kainate-induced seizure in mice given peptide (icv or intranasal); assay type: in vivo
Protocol: as §1, with “To induce seizures with pentylenetetrazole (PTZ), mice were injected (i.p.) with PTZ at 40 mg/kg (dissolved in saline), with or without 8-Cyclopentyl-1,3-dipropylxanthine (DPCPX).” left out, “min. […]” for “min.”

[8] = test system: kainate-induced seizures; test: Kainate-induced seizure in WT and Rgs4-/- mice; assay type: in vivo
Protocol: as §1, with “To induce seizures with pentylenetetrazole (PTZ), mice were injected (i.p.) with PTZ at 40 mg/kg (dissolved in saline), with or without 8-Cyclopentyl-1,3-dipropylxanthine (DPCPX).” left out

- direct interaction of A1R (aa202-326) with Nrb331-453 [1]: no effect
Compound: 3i loop peptide: peptide carrying the sequence of the A1R 3i loop (aa202-235) (EVFYLIRKQLNKKVSASSGDPQKYYGKELKIAKS; UniProt P30542 202-235, looked up, fragment)

Compound: CC(Cc1ccccc1)Nc1ncnc2c1ncn2[C@@H]1O[C@H](CO)[C@@H](O)[C@H]1O (single isomer, unassigned; (-)) [R-PIA, (−)-N6-(2-Phenylisopropyl) adenosine]
- inhibition of baseline transmission ([2]; WT mice slices, 100 nM): about 75%
- inhibition of fEPSP ([2]; WT mice slices, 10, 30, 100 nM): dose-dependently inhibited
- inhibition of fEPSP vs WT slices ([2]; slices from Ppp1r9a-/- or Rgs4-/- mice, same concentration (10 nM, FIG. 2E-F)): significantly higher level of inhibition
- Akt phosphorylation at Thr 308 ([3]; WT neurons): dose-dependent increase
- Akt activation over time ([3]; WT neurons, 1 μM R-PIA): desensitized after 30 min stimulation
- phospho-Akt levels at 30 min ([3]; neurons lacking neurabin, 1 μM R-PIA): no apparent reduction
- Akt phosphorylation vs WT neurons ([3]; neurons lacking neurabin, same dose): significantly higher level of Akt phosphorylation
- effect on glutamate-induced neuronal death [4]: protective effect

Compound: CCCn1c(=O)c2[nH]c(C3CCCC3)nc2n(CCC)c1=O [DPCPX, 8-Cyclopentyl-1,3-dipropylxanthine]
- PTZ-induced seizure severity on co-treatment with DPCPX ([5]; WT and neurabin null mice, vs PTZ alone): continued to progress to a much more severe level
- death after combined treatment with PTZ and DPCPX ([5]; both genotypes (WT, Ppp1r9a-/-)): more than 55%
- effect of TAT-A1R-CT on epileptic activities with DPCPX [6]: failed to reduce epileptic activities
- anti-seizure effect of A1R-CT on co-treatment with DPCPX ([7]; icv peptide): no longer observed
- anti-seizure effect of TAT-A1R-CT peptide on co-treatment with DPCPX ([7]; intranasal peptide): abolished
- effect of A1R blockade on seizure severity and mortality rate ([8]; Rgs4-/- mice, kainate plus DPCPX, to a level similar to WT): increased the seizure severity and mortality rate

Compound: C1CCc2nnnn2CC1 [PTZ, pentylenetetrazole]
- PTZ-induced lethality within 40 minutes ([5]; WT mice, PTZ alone): About 10%

Compound: C=C(C)[C@H]1CN[C@H](C(=O)O)[C@H]1CC(=O)O [kainate]
- mortality after kainate ([8]; WT mice, kainate 20 mg/kg): over 40%

- direct interaction of A1R (aa202-326) with Nrb331-453 [1]: markedly reduced
Compound: A1R-CT: peptide carrying the sequence of the A1R C-tail (aa293-326), without TAT fusion (QKFRVTFLKIWNDHFRCQPAPPIDEDLPEERPDD; UniProt P30542 293-326, looked up, fragment)
